Patent US11999758B2, “Inhibitors of the YAP/TAZ-TEAD interaction and their use in the treatment of cancer” (INVENTIVA, priority 2018, dated 2024)
pIC50: −log10 of the molar value.

Biological target: T1, YAP-TEAD interaction (Homo sapiens, UniProt P28347)
T1 construct: expressed in transfected cells; host or cells: HEK293 GripTite 293 MSR (Invitrogen R795-07)
Experiment: Cell-based TEAD-GAL4 transactivation assay (luciferase reporter)
Conditions: HEK293 cells transfected with TEAD1-Gal4, YAP mutant (S127A, S397A) and luciferase reporter, compounds 0.1 μM to 30 μM; for Emax: HEK293, 24 h, read-out: TEAD-GAL4 Transactivation activity Max Act; for pIC50: 24 h
Procedure: To identify inhibitors of YAP-TEAD interaction, a transient transactivation assay was carried out on HEK293 cell line (HEK293 GripTite™ 293 MSR (Invitrogen R795-07)) using plasmids containing the full length TEAD1 sequences, the full length YAP mutant (S127A, S397A) and a luciferase gene reporter. All expression constructs were performed into a pSG5 backbone plasmid in which the SV40 promoter was replaced by the CMV promoter. The TEAD1 construct was prepared by cloning the full-length human TEAD1 cDNA in fusion with the Gal4 DNA Binding Domain (AA 1-148) into pSG5_CMV to create the TEAD1 (FL)_hum_pSG5Gal4_CMV. The full-length YAP mutant (S127A, S397A) was also cloned into pSG5_CMV to create the YAP (FL)_hum_pSG5_mutS127A_S397A_CMV. The reporter plasmid GAL4(5×RE)_TK(−105/+56)_pGL3-Basic contains 5 copies of the GAL4 responsive element (5′-TCGGAGGACAGTACTCC-3′) upstream of the thymidine kinase (TK) promoter (−105/+56) inserted in a pGL3-Basic vector. To evaluate the selectivity of our compounds in blocking the YAP-TEAD interaction, a counter-screening protein-protein interaction transactivation assay was also established. Briefly, two other expression plasmids, the pBD-P53 which expresses the P53 (AA 72-390) in fusion with Gal4 and the pAD-SV40T which expresses the SV40 large T antigen (AA 84-708,AgT), were created. HEK293 cells were seeded at 5×10^4 cells/well in 96 well plates (assay plates) in DMEM medium containing 4.5 g/L D-glucose, 10% high inactivated (HI) fetal bovine serum 1% Glutamax, 1% non-essential amino acid and 1% sodium pyruvate and 0.5% penicillin/streptomycin at 37° C. in a humidified atmosphere of 8% CO2. After 24 h, transfections were performed using Jet-PEI as transfectant (101B-010 Polyplus Transfection), according to the instructions of the manufacturer (N/P=10) and a ratio YAP/TEAD=10 (per well: 50 ng of YAP(FL), 5 ng of TEAD(FL) and 50 ng of reporter plasmid). Six hours after cell transfection, the plates (‘assay plate’) were washed with 100 μl PBS per well and cells were treated with compounds in semi-log from 0.1 μM to 30 μM or DMSO 0.5% as control in DMEM, 4.5 g/L D-Glucose without phenol red, 0.3% BSA, 1% glutamax, 1% NEAA, 1% sodium pyruvate. 24 h later, the luciferase activity was determined after addition of 100 μl of Steady Glo™ luciferase assay system (Promega E2550) according to the manufacturer's directions. Luciferase activity in cell extracts was measured by reading luminescence using the Envision device.
The cellular response was determined by fitting the concentration response curves using a 3-parameter curve fit equation and determining the concentration that inhibited the luciferase activity by 50%.

T1 sequence (P28347 whole entry): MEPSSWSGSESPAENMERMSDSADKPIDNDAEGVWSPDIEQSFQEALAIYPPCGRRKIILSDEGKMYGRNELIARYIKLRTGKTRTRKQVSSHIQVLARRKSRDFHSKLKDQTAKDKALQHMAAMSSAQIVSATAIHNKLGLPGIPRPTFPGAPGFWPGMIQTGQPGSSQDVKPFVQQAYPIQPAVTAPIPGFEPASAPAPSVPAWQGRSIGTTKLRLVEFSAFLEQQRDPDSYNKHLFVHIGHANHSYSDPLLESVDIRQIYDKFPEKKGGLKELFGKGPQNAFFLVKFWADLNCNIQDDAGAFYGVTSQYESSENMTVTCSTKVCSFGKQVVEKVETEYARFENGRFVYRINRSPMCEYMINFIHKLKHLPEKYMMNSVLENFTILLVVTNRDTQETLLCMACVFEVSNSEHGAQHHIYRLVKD

SMILES	Emax [%]	pIC50
COc1cc(/C=N/N(CC(C)C)c2ncnc3c(OC)cccc23)ccc1B(O)O [Ex 13, [4-[(E)-[isobutyl-(8-methoxyquinazolin-4-yl)hydrazono]methyl]-2-methoxy-phenyl] boronic acid]	95	5.24
COc1ccc2c(c1)C(N(CC(C)C)/N=C/c1ccc(B(O)O)c(OC)c1)=NS2(=O)=O [Ex 2, [4-[(E)-[isobutyl-(5-methoxy-1,1-dioxo-1,2-benzothiazol-3-yl)hydrazono]methyl]-2-methoxy-phenyl]boronic acid]	95	5.64
COc1cc(C2=NN(C3=NS(=O)(=O)c4ccccc43)C(C)CC2)ccc1B(O)O (stereo not shown) [Ex 52, [4-[2-(1,1-dioxo-1,2-benzothiazol-3-yl)-3-methyl-4,5-dihydro-3H-pyridazin-6-yl]-2-methoxy-phenyl]boronic acid]	70	5.78
COc1cc(C2=NN(C3=NS(=O)(=O)c4ccccc43)CC(C)O2)ccc1B(O)O (stereo not shown) [Ex 58, [4-[4-(1,1-dioxo-1,2-benzothiazol-3-yl)-6-methyl-5,6-dihydro-1,3,4-oxadiazin-2-yl]-2-methoxy-phenyl]boronic acid]	81	5.49
COc1cc(/C=N/N(CC(C)C)C2=NS(=O)(=O)c3cc(C#N)ccc32)ccc1B(O)O [Ex 10, [4-[(E)-[(6-cyano-1,1-dioxo-1,2-benzothiazol-3-yl)-isobutyl-hydrazono]-methyl]-2-methoxy-phenyl]boronic acid]	78	5.36
COc1cc(/C=N/N(C)c2ncnc3c(OC)cccc23)ccc1B(O)O [Ex 22, [2-methoxy-4-[(E)-[(8-methoxyquinazolin-4-yl)-methyl-hydrazono]-methyl]phenyl]boronic acid]	97	5.59
COc1cc(C2=NN(C3=NS(=O)(=O)c4ccccc43)CC(C)(C)C2)ccc1B(O)O [Ex 57, [4-[2-(1,1-dioxo-1,2-benzothiazol-3-yl)-4,4-dimethyl-3,5-dihydro-pyridazin-6-yl]-2-methoxy-phenyl]boronic acid]	84	5.51
CC(C)CN(/N=C/c1ccc2c(c1)COB2O)C1=NS(=O)(=O)c2ccc(F)cc21 [Ex 28, 5-fluoro-N-[(E)-(1-hydroxy-3H-2,1-benzoxaborol-5-yl)methyleneamino]-N-isobutyl-1,1-dioxo-1,2-benzothiazol-3-amine]	90	5.56
COc1cc(/C=N/N(CC(C)C)c2ncnc3c(C)csc23)ccc1B(O)O [Ex67, [4-[(E)-[isobutyl-(7-methylthieno[3,2-d]pyrimidin-4-yl)hydrazono]methyl]-2-methoxy-phenyl]boronic acid]	89	5.42
COc1cc(OC)c2ncnc(N(CC(C)C)/N=C/c3ccc(B(O)O)c(OC)c3)c2c1 [Ex 17, [4-[(E)-[(6,8-dimethoxyquinazolin-4-yl)-isobutyl-hydrazono]methyl]-2-methoxyphenyl]boronic acid]	98	5.11
COc1cc(OC)c2c(c1)C(N(CC(C)C)/N=C/c1ccc(B(O)O)c(Cl)c1)=NS2(=O)=O [Ex 15, [2-chloro-4-[(E)-[(5,7-dimethoxy-1,1-dioxo-1,2-benzothiazol-3-yl)-isobutyl-hydrazono]methyl]phenyl]boronic acid]	95	–
COc1cc(C2=NN(c3ncnc4c(OC)cccc34)C(C)CC2)ccc1B(O)O (stereo not shown) [Ex 55, [2-methoxy-4-[2-(8-methoxyquinazolin-4-yl)-3-methyl-4,5-dihydro-3H-pyridazin-6-yl]phenyl]boronic acid]	92	5.82
CC(C)CN(/N=C/c1ccc(B(O)O)c(Cl)c1)C1=NS(=O)(=O)c2ccccc21 [Ex 6, [2-chloro-4-[(E)-[(1,1-dioxo-1,2-benzothiazol-3-yl)-isobutyl-hydrazono]methyl]phenyl] boronic acid]	62	–
COc1cc(C2=NN(c3ncnc4c(OC)cccc34)C(C)CC2)ccc1B(O)O (single isomer, unassigned; isomer 1) [Ex124, [2-methoxy-4-[2-(8-methoxyquinazolin-4-yl)-3-methyl-4,5-dihydro-3H-pyridazin-6-yl]phenyl]boronic acid (isomer 1)]	93	5.14
CCC(C)N(/N=C/c1ccc(B(O)O)c(OC)c1)C1=NS(=O)(=O)c2ccccc21 (stereo not shown) [Ex 16, [4-[(E)-[(1,1-dioxo-1,2-benzothiazol-3-yl)-sec-butyl-hydrazono]methyl]-2-methoxyphenyl]boronic acid]	76	5.38

Results, then the molecule that gave them:

Emax [%]	pIC50	SMILES
80	6.20	CCN(/N=C/c1ccc2c(c1)COB2O)c1nc(C)nc2c(C)csc12 [Ex88, N-ethyl-N-[(E)-(1-hydroxy-3H-2,1-benzoxaborol-5-yl)methyleneamino]-2,7-dimethyl-thieno[3,2-d]pyrimidin-4-amine]
79	6.18	Cc1csc2c(N(CCO)/N=C/c3ccc4c(c3)COB4O)ncnc12 [Ex97, 2-[[(E)-(1-hydroxy-3H-2,1-benzoxaborol-5-yl)methyleneamino]-(7-methylthieno[3,2-d]pyrimidin-4-yl)amino]ethanol]
80	6.15	Cc1csc2c(N(CC(C)C)/N=C/c3ccc4c(c3)COB4O)ncnc12 [Ex93, N-[(E)-(1-hydroxy-3H-2,1-benzoxaborol-5-yl)methyleneamino]-N-isobutyl-7-methyl-thieno[3,2-d]pyrimidin-4-amine]
78	6.04	CCN(/N=C/c1ccc2c(c1)COB2O)c1ncnc2c1ccn2C [Ex 44, N-ethyl-N-[(E)-(1-hydroxy-3H-2,1-benzoxaborol-5-yl)methyleneamino]-7-methyl-pyrrolo[2,3-d]pyrimidin-4-amine]
87	7.00	COCCCN(/N=C/c1ccc2c(c1)COB2O)c1ncnc2nc(SC)sc12 [Ex96, N-[(E)-(1-hydroxy-3H-2,1-benzoxaborol-5-yl)methyleneamino]-N-(3-methoxypropyl)-2-methylsulfanyl-thiazolo[4,5-d]pyrimidin-7-amine]
78	5.56	COCCCN(/N=C/c1ccc2c(c1)COB2O)C1=NS(=O)(=O)c2ccccc21 [Ex 25, N-[(E)-(1-hydroxy-3H-2,1-benzoxaborol-5-yl)methyleneamino]-N-(3-methoxypropyl)-1,1-dioxo-1,2-benzothiazol-3-amine]
85	5.85	CN(/N=C/c1ccc2c(c1)COB2O)c1ncnc2c1CCC(=O)N2 [Ex100, 4-[[(E)-(1-hydroxy-3H-2,1-benzoxaborol-5-yl)methyleneamino]-methyl-amino]-6,8-dihydro-5H-pyrido[2,3-d]pyrimidin-7-one]
82	5.59	COCC1CC(n2c(=O)[nH]c3c(N(C)/N=C/c4ccc5c(c4)COB5O)ncnc32)C1 (stereo not shown) [Ex108, 6-[[(E)-(1-hydroxy-3H-2,1-benzoxaborol-5-yl)methyleneamino]-methyl-amino]-9-[3-(methoxymethyl)cyclobutyl]-7H-purin-8-one]
83	6.24	CCN(/N=C/c1ccc2c(c1)COB2O)c1ncnc2c1cnn2C [Ex 41, N-ethyl-N-[(E)-(1-hydroxy-3H-2,1-benzoxaborol-5-yl)methyleneamino]-1-methyl-pyrazolo[3,4-d]pyrimidin-4-amine]
